Reference: US20190134120A1, “METHODS FOR THE TREATMENT OF BLADDER CANCER” (Viralytics Limited, priority 2013, published 2019)

How the values were obtained:
[1] = assay type: physicochemical, Human; details: 3x10^6 TCID50; 37 C for one hour in healthy donor urine
Procedure: Human cancer bladder tissue was disaggregated and primary tumour cells were isolated. These were tested for bladder tumour markers (Cytokeratin 7) (data not shown). Primary tumour cells were infected at varying MOIs and incubated at 37 C for 72 hours then photographed and analysed by MTS ([3-(4,5-dimethylthiazol-2-yl)-5-(3-carboxymethoxyphenyl)-2-(4-sulfophenyl)-2H-tetrazolium, inner salt) assay. (A) CVA21 MOI 3. (B) Uninfected cells. (C) MTS assay. (D) CVA21 (3×10^6 TCID50) was incubated at 37 C for one hour in healthy donor urine. Resulting virus was titrated by TCID50 on SK-MEL-28 cells for 5 days.
In brief, SK-MEL-28 cells were plated at 1×10^4 cells per well (100 μL) of a 96 well tray in 10% DMEM and incubate at 37° C. o/n. 37.5 ul of stock CVA21 virus (7.75e7 TCID50/ml) was added 462.5 ul of normal health urine or Hanks or PBS or HANKS for 1 hrs at 37° C. After which urine/CVA21 was serially diluted 1:10 in 2% DMEM. The media was removed from the cells and 100 ul of each dilution was added to one of ten wells. The assay was then incubated at 37° C. for 5 days, after which the media was removed from the cells and 100 ul of 0.1% Glutaldehyde (Sigma) in PBS was added. […]. TCID50 is calculated by the Spearman & Kärber algorithm as described in Hierholzer & Killington (1996), Virology Methods Manual, p. […]

[2] = test system: human bladder tumor tissue; assay: Ex vivo infection of human bladder tumour tissue by CVA21 (immunostaining); details: 3.875x10^6 TCID50 CVA21; 48 hours post infection
Procedure: Primary bladder cancer tissue was received from the operating theatre of the Royal Surrey County Hospital UK in a dry pot. The tissue was cut into small pieces of between 2-4 mm and placed in 0.5 ml 10% FCS/DMEM with Pen/Strep and GLUT containing 3.875×10^6 TCID50 of CVA21. The infected tissue was incubated at 37° C., 5% CO2 for 48 hrs. Tissue was then fixed in 10% neutral buffered formalin for 18-24 hours.
Tissue pieces originating from the same human bladder tumour were either infected with CVA21 or left uninfected. Immunofluorescence and immunostaining for coxsackievirus was performed 48 hours post infection.
In brief, bladder cancer tissue was fixed using 10% neutral buffered formalin for 18-24 hours. After fixation, the tissue block was embedded in paraffin, and 4 μm sections cut and affixed onto slides. The sections were dried overnight at 37° C., deparaffinized, and rehydrated. Endogenous peroxidase was blocked using methanol/0.3% H202 for 20 min. The sections were then subjected to heat mediated antigen retrieval in a microwave using citrate buffer (10 mM, pH 6.0). Following washing, the slides were blocked with 2.5% horse serum and endogenous biotin blocked using an Avidin/Biotin blocking kit (SP-2001, VectorLabs) according to the manufacturer's instructions. […]

T24 cells = assay: Synergy between CVA21 and radiotherapy, T24 cells; assay type: cell-based, Human
Procedure: Combining CVA21 with the radiotherapy has shown exceptional synergy. When 5637 cells were irradiated (4-10 Gy) then 24 hours later exposed to CVA21 (multiplicities of infection 0.961-12.6), clear synergy was seen (FIG. 3a). […] A comprehensive experimental and analytic method was implemented for this work which allows calculation of combination index values at all data points, and therefore identification of areas of high synergy across the whole response surface (Greco et al. 1995) (FIGS. 3b, 3c).
In brief, T24/5637 cells were plated at 0.25×10^4/0.5×10^4 cells per well (100 μL) of a 96 well tray and incubated at 37° C. for 24 hrs. Day 2—An extra 100 ul 10% FCS, media was added to the cells. Then they were treated with Rad (Gy 0, 4, 6, 8, 10) on a clinical Varian linear accelerator in St Luke's Cancer Centre, Royal Surrey Hospital UK. Day 2—The plates were returned to the lab and incubated at 37° C. for 24 hrs. Day 3—The medium was removed and 100 ul of CVA21 (MOI 12.5-0.1 in 2% FCS medium) was added and incubated at 37° C. for 72 hrs. Day 6—The medium was removed and 100 μl of fresh 10% FCS medium added and incubated for 24 hrs. Day 7—The medium was removed and 100 μl of diluted MTS reagent (Promega) was added. The plates were then incubated for 1-2 hr and read absorbance at 492 nm. […]

[3] = test system: bladder cancer cell line 5637; assay: Synergy between CVA21 and MMC, dose matrix, 5637 cells; assay type: cell-based, Human; details: MMC 0 to 2.8 ug/ml
Procedure: (§1) In brief, 5637/T24/TCCSUP-1 cells were plated at 1×10^4 cells per well (100 μL) of a 96 well tray and incubated at 37° C. for 24 hrs. Mitomycin C was diluted in 10% FCS medium in doubling dilutions from between 2.8 to 0.02 ug/ml for 5637 cells and between 3.36 to 0.03 ug/ml for T24 cells. CVA21 was then diluted between MOI 25-0.196 in doubling dilutions using each dilution of Mitomycin C. The cells were then treated with each dilution of CVA21/Mitomycin C and incubated for 72 hrs. The medium was removed and 100 μl of diluted MTS reagent (Promega) was added. The plates were then incubated for 1-4 hrs and absorbance read at 492 nm.

KU19-19 cells = assay: CVA21 cytotoxicity, KU19-19 cells; assay type: cell-based, Human; details: FIG. 2b
[4] = test system: late stage melanoma patients; details: Phase I, intratumorally administered, cited from earlier work
bladder cell line T24 = assay: Synergy between MMC and CVA21, dose matrix, T24 cells; assay type: cell-based, Human; details: CVA21 (0-50 TCID50/cell) with MMC (0-3.36 ug/ml), at low mitomycin concentrations, especially below 0.2 ug/ml
Procedure: as §1

VMCUB-1 cells = assay: CVA21 cytotoxicity, VMCUB-1 cells; assay type: cell-based, Human; details: FIG. 2b

In the case of Coxsackievirus A21 [CVA21], the “stability in human urine” value [1] is reported as “stable”, the “infectability of ex-vivo tumour tissue” value [2] is reported as “highly infectable” and the “interaction of CVA21 with radiation” value (T24 cells) is reported as “Synergy between radiation and CVA21 was confirmed”. The “interaction of CVA21 with MMC” value [3] was “Synergy”, the “susceptibility of cell line to CVA21” value (KU19-19 cells) was “resistant” and the tolerability ([4]; humans) was “well tolerated”. The “patients with stabilization or reduction in injected tumour volumes” value ([4]; late stage melanoma) was 55.55%, the CI values (bladder cell line T24) was less than 1 and the “susceptibility of cell line to CVA21” value (VMCUB-1 cells) was “resistant”.
